{"source": "ChEMBL document CHEMBL1201862", "about": "“PubChem BioAssay data set” (2004)", "key": {"[1]": {"target": "T1, Estrogen receptor (Homo sapiens, UniProt P03372)", "T1 sequence (P03372 whole entry)": "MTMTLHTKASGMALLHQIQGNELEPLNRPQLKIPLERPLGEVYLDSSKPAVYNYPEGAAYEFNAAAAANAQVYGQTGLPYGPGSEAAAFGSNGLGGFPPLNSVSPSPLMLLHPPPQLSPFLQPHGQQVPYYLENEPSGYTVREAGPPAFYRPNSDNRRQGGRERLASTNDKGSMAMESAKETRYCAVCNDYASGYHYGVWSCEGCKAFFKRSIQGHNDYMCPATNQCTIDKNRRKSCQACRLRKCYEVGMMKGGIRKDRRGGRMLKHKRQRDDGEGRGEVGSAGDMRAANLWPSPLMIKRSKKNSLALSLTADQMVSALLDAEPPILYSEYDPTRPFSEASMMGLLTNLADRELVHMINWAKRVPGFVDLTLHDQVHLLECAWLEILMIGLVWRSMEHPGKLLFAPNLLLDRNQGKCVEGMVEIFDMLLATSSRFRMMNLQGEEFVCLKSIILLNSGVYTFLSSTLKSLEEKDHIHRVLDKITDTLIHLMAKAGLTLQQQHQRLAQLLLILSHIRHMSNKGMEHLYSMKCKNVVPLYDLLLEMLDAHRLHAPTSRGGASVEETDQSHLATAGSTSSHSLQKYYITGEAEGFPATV", "test": "potentiators of ERα–SRC-1 coactivator binding, dose response, biochemical, TR-FRET, ERα LBD (AID 737)"}, "[2]": {"target": "T2, Endoribonuclease toxin MazF (Escherichia coli K-12, UniProt P0AE70)", "T2 sequence (P0AE70 whole entry)": "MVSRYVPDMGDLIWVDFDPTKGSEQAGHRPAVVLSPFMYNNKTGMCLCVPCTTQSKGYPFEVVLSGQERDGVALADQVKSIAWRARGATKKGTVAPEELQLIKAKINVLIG", "test": "fluorescent RNA oligo signal without MazF, dose response, counter-screen for MazEF activator project, biochemical, fluorescence, single-stranded RNase substrate (AID 588502)", "format": "functional"}, "[3]": {"target": "T2, Endoribonuclease toxin MazF", "test": "MazF toxin RNase activators, dose response, biochemical, fluorescence, single-stranded RNA substrate, uHTS hits (AID 588481)", "format": "functional"}, "[4]": {"target": "Peroxisome proliferator-activated receptor gamma/Nuclear receptor coactivator 3 (Homo sapiens, UniProt P37231)", "test": "(§1) TR-FRET dose response biochemical High Throughput Screening assay for agonists of the steroid receptor coactivator 3 (SRC-3) recruitment by the peroxisome proliferator-activated receptor gamma (PPAR gamma): non-selective agonists. [Related pubchem assays: 1301 (Confirmation screen.), 1048 (Primary screen.)]", "format": "functional"}, "[5]": {"test": "inhibitors of intracellular T. cruzi replication, confirmation, NIH3T3 host cells, beta-gal luminescence (AID 2044)", "format": "functional, cell-based"}, "[6]": {"test": "inhibitors of Trypanosoma cruzi host-cell infection, confirmation, beta-gal luminescence, NIH3T3 host cells (AID 2630)", "format": "functional, cell-based", "conditions": "Mus musculus"}, "[7]": {"test": "Luminescence Cell-Based Secondary HTS screen to identify cytotoxic compounds of NIH3T3 cells. [Related pubchem assays: 1885, 1968 ]", "format": "functional"}, "[8]": {"target": "Peroxisome proliferator-activated receptor gamma/Nuclear receptor coactivator 1 (Homo sapiens, UniProt P37231)", "test": "as §1, with “1 (SRC-1)” for “3 (SRC-3)”, “assays (depositor defined):AID1300, AID1808, AID504735, AID631]” for “assays: 1301 (Confirmation screen.), 1048 (Primary screen.)]”", "format": "protein assay"}, "[9]": {"target": "Peroxisome proliferator-activated receptor gamma/Nuclear receptor coactivator 2 (Homo sapiens, UniProt P37231)", "sequence (P37231 whole entry)": "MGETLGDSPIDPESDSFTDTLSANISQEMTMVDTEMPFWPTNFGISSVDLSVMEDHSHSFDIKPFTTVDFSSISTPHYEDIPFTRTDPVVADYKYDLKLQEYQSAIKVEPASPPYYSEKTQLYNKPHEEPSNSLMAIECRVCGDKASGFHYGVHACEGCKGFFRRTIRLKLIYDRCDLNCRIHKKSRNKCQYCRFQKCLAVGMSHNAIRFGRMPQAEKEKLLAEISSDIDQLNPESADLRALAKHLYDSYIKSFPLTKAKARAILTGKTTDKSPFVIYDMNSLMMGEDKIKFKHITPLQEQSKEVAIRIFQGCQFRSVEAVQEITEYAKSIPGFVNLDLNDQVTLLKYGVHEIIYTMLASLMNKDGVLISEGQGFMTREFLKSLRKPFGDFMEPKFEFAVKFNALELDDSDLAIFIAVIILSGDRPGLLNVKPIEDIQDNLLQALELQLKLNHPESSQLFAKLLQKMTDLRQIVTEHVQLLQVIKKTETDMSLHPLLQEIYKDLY", "sequence (Q15596 whole entry, further chain)": "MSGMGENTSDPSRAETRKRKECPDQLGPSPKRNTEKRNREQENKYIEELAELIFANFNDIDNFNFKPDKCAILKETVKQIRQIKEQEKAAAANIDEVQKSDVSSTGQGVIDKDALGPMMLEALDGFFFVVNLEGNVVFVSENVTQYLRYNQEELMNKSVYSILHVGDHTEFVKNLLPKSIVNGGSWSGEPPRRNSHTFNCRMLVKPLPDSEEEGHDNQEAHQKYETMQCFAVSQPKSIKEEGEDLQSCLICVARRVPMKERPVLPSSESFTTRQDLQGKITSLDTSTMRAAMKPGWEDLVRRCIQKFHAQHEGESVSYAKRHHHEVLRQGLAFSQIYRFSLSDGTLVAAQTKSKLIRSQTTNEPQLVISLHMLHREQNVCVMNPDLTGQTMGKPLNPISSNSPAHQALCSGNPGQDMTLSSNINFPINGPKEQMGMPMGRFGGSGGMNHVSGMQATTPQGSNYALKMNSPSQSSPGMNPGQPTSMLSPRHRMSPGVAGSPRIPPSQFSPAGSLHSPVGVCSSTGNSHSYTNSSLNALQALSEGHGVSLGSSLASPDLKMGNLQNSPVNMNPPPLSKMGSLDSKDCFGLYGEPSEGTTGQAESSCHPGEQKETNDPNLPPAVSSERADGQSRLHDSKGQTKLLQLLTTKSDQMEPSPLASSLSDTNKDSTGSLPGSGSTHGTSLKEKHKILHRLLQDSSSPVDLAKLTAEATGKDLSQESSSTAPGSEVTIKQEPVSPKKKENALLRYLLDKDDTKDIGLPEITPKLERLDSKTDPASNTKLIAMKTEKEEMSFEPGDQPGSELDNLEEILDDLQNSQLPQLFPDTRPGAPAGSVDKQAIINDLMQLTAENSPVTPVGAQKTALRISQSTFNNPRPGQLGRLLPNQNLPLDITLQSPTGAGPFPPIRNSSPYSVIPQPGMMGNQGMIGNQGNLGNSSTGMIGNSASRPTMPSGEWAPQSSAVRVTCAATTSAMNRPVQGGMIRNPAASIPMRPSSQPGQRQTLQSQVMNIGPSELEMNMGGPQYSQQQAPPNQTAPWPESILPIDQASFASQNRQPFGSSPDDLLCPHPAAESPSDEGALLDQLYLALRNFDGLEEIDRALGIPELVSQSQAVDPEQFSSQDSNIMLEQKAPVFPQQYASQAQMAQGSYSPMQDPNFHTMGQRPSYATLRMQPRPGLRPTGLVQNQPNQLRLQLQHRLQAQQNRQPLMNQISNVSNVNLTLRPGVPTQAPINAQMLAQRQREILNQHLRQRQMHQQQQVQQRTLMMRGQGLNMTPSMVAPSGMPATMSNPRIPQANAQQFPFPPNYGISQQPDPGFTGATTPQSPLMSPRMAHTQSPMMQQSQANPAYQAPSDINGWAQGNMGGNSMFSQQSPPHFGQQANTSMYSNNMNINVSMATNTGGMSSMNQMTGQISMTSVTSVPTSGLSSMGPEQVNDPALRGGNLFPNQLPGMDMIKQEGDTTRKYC", "test": "TR-FRET dose response biochemical High Throughput Screening assay for agonists of the steroid receptor coactivator 2 (SRC-2) recruitment by the peroxisome proliferator-activated receptor gamma (PPAR gamma): non-selective agonists. [Related pubchem assays: 1297, 1032 ]", "format": "functional"}, "[10]": {"test": "Luminescence Cell-Based/Microorganism Confirmation at Dose of Inhibitors of Trypanosoma cruzi Infection. [Related pubchem assays: 1885, 1968 ]", "format": "functional"}, "[11]": {"test": "cytotoxicity toward NIH3T3 fibroblasts, dose response, counter-screen, cell-based, ATP luminescence, mouse fibroblasts (AID 2010)", "format": "functional"}, "[12]": {"target": "Neuropeptide Y receptor type 1 (Homo sapiens, UniProt P25929)", "sequence (P25929 whole entry)": "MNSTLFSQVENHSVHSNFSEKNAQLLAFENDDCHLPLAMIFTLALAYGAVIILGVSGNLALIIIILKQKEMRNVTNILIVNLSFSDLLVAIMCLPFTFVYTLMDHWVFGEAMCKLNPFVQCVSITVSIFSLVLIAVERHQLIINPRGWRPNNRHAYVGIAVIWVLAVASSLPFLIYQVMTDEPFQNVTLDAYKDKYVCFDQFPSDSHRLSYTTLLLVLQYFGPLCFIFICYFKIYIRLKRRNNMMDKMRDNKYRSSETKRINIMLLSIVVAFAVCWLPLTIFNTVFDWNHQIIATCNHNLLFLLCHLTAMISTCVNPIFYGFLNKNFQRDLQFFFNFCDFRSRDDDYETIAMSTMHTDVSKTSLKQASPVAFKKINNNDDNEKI", "test": "NPY-Y1 receptor antagonist potency, dose response, cell-based (AID 1277)", "format": "functional"}, "[13]": {"target": "Neuropeptide Y receptor type 2 (Homo sapiens, UniProt P49146)", "sequence (P49146 whole entry)": "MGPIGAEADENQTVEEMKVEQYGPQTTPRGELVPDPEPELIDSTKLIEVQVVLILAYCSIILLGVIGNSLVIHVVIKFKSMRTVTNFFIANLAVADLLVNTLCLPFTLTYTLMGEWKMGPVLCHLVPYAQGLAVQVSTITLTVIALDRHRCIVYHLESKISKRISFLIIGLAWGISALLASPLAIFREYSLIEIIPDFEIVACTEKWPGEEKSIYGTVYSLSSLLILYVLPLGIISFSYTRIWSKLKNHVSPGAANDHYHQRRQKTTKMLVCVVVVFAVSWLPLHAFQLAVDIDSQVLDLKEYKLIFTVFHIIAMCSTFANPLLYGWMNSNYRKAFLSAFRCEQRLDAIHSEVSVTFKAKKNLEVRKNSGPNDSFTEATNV", "test": "NPY-Y2 antagonist potency, selectivity check, dose response, counter-screen for NPY-Y1 antagonist project, cell-based (AID 1278)", "format": "functional"}, "[14]": {"test_system": "BJ", "test": "cytotoxicity toward Ras-transformed BJeLR fibroblasts, dose response, cell-based, alamar blue fluorescence, cherrypicked samples (AID 2631)", "format": "functional", "conditions": "Homo sapiens"}, "[15]": {"test": "Luminescence-based counterscreen assay for KLF5 inhibitors: dose response cell-based high throughput screening assay to identify cytotoxic compounds using the IEC-6 intestinal epithelial cell line. [Related pubchem assays: 1700 (Primary screen.), 1834 (Confirmation screen.), 1858 (Summary AID.), 1905 (Counterscreen.)]", "format": "functional"}, "[16]": {"target": "Luciferin 4-monooxygenase (Photinus pyralis, UniProt P08659)", "sequence (P08659 whole entry)": "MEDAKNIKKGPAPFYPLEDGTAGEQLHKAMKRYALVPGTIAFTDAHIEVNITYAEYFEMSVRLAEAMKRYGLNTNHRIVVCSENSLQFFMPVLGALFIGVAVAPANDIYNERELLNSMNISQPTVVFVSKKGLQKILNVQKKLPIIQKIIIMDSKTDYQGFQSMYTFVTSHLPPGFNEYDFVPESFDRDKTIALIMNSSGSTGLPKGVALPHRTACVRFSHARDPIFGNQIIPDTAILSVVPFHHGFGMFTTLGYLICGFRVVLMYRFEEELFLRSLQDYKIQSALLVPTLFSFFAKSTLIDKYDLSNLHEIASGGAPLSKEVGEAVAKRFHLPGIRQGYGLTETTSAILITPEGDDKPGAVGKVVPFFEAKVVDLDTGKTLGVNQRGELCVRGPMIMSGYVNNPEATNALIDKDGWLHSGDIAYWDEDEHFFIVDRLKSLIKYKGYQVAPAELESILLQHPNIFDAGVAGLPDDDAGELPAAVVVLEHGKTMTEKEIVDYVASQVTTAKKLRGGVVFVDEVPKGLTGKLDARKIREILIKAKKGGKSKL", "test": "firefly luciferase enzyme inhibitors, dose response, biochemical, luminescence (AID 1891)"}, "[17]": {"test": "Luminescence Cell-Based Dose Response HTS to Identify Inhibitors of 5'UTR Stem-Loop Driven Prion Protein mRNA Translation in H4 Neuroglioblastoma Cells. [Related pubchem assays: 1827 (Project Summary), 1813 (Primary HTS)]", "format": "functional"}, "[18]": {"test": "Luminescence Cell-Based Dose Confirmation HTS to Identify Inhibitors of Platelet Dense Granule Release. [Related pubchem assays: 1663 (Primary HTS), 1678 (Summary of Project)]", "format": "functional"}, "[19]": {"target": "T3, Heat shock factor protein 1 (Mus musculus, UniProt P38532)", "T3 sequence (P38532 whole entry)": "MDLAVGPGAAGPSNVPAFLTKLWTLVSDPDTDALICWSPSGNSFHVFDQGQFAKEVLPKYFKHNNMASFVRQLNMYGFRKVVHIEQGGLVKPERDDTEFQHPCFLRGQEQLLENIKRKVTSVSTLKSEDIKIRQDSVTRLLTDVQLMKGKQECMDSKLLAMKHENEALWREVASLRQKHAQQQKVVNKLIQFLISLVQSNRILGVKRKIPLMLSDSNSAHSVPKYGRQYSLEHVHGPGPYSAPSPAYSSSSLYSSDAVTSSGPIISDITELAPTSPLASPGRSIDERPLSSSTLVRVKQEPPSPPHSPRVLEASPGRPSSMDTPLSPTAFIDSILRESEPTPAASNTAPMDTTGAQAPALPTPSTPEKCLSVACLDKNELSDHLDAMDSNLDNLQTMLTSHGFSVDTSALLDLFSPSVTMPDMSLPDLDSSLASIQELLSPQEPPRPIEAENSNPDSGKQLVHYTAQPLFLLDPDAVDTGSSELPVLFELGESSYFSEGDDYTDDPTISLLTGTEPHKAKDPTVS", "test": "inhibition of MG132-induced HSE-luciferase signal, confirmation, cell-based, NIH3T3, luminescence, dose retest (AID 2382)", "format": "functional"}, "[20]": {"test": "HepG2 cell cytotoxicity, dose response, cytotoxicity control, plate reader, cherry-pick, antagonist series (AID 743416)", "format": "functional, cell-based"}, "[21]": {"test_system": "BJ", "test": "cells", "format": "functional, cell-based", "conditions": "Homo sapiens"}, "[22]": {"test_system": "BJ", "test": "cytotoxicity toward BJ-TERT fibroblasts, dose response, cell-based, RAS-independent, luminescence (AID 1933)", "format": "functional", "conditions": "Homo sapiens"}, "[23]": {"test": "A549 cell cytotoxicity, dose response, cytotoxicity control, plate reader, cherry-pick, antagonist series (AID 743412)", "format": "functional, cell-based"}, "[24]": {"test_system": "BJ", "test": "cytotoxicity toward BJ-TERT-LT-ST fibroblasts, dose response, cell-based, RAS-independent, luminescence (AID 1935)", "format": "functional", "conditions": "Homo sapiens"}, "[25]": {"test": "cytotoxicity toward DRD oncogenic fibroblasts, dose response, cell-based, non-viral oncogenic, luminescence (AID 1934)", "format": "functional", "conditions": "Homo sapiens"}, "[26]": {"test_system": "HEK293", "test": "inhibitors of LMP1-driven NF-kB reporter, dose response, cell-based, HEK293, luciferase, cherry-pick (AID 588343)", "format": "functional", "conditions": "Homo sapiens"}, "[27]": {"target": "T4, Oxysterols receptor LXR-beta (Homo sapiens, UniProt P55055)", "T4 sequence (P55055 whole entry)": "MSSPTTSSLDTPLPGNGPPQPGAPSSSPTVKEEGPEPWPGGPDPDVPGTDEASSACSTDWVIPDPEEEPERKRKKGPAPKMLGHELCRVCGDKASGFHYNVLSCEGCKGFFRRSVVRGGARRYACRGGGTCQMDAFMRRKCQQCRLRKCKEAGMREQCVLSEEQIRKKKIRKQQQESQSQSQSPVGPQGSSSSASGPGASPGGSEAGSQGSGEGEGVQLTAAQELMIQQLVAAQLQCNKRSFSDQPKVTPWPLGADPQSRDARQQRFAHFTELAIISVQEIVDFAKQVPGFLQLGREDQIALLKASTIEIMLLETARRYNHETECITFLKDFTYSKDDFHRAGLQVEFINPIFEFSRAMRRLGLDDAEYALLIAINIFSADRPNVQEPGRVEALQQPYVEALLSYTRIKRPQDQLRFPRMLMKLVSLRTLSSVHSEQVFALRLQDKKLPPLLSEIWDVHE", "format": "functional, cell-based"}, "[28]": {"test": "LGR2 antagonists, dose response, cell-based, HEK293, CRE-luciferase reporter, cherry pick, set 2 (AID 743343)", "format": "functional"}, "[29]": {"test": "inhibitors of SNCA 5'UTR-driven reporter translation, confirmation, H4 neuroglioma cells, luminescence (AID 1988)", "format": "functional, cell-based"}, "[30]": {"test": "MC4R antagonists, dose response, counter-screen for LGR2 antagonist project, cell-based, plate reader, cherry pick (AID 743444)", "format": "functional"}, "[31]": {"target": "T1, Estrogen receptor"}, "[32]": {"test": "A Cell Based Secondary Assay To Explore Cytotoxicity of Compounds that Sensitize Mycobacterium Tuberculosis to Beta-Lactam Antibiotics.", "format": "functional"}}, "note": "Activity calls are given as the source filed them."}
{"smiles": "CCc1ccc2nc(SCC(=O)N3CC(=O)Nc4ccccc43)c(C#N)cc2c1", "values": [{"measurement": "EC50", "setting": "[1]", "result": "32.9 µM (not active)"}, {"measurement": "EC50", "setting": "[2]", "result": "> 99 µM (inactive)"}, {"measurement": "EC50", "setting": "[3]", "result": "> 99 µM (inactive)"}]}
{"smiles": "COc1cc(C(=O)NCCC(C)C)ccc1OCc1ccc(Cl)cc1Cl", "values": [{"measurement": "EC50", "setting": "[4]", "result": "> 79.4 µM (not active)"}, {"measurement": "EC50", "setting": "[5]", "result": "1.34 µM (active)"}, {"measurement": "EC50", "setting": "[6]", "result": "4.43 µM (active)"}, {"measurement": "EC50", "setting": "[7]", "result": "> 195 µM (not active)"}, {"measurement": "EC50", "setting": "[8]", "result": "> 79.4 µM (inactive)"}, {"measurement": "EC50", "setting": "[9]", "result": "> 79.4 µM (not active)"}, {"measurement": "EC50", "setting": "[10]", "result": "4.43 µM (inconclusive)"}, {"measurement": "EC50", "setting": "[11]", "result": "> 30 µM (not active)"}]}
{"smiles": "CC(C)(C)NC(=O)c1oc2ccccc2c1COc1ccccc1", "values": [{"measurement": "IC50", "setting": "[12]", "result": "18.9 µM (not active)"}, {"measurement": "IC50", "setting": "[13]", "result": "> 35 µM (not active)"}]}
{"smiles": "CCNC(S)=NNC(=O)c1cc(-c2ccc(OCC)cc2)nc2ccccc12", "values": [{"measurement": "EC50", "setting": "[14]", "result": "> 133 µM (inactive)"}, {"measurement": "IC50", "setting": "[15]", "result": "> 39.8 µM (not active)"}, {"measurement": "EC50", "setting": "[16]", "result": "< 0.088 µM (active)"}, {"measurement": "EC50", "setting": "[17]", "result": "16.1 µM (active)"}, {"measurement": "EC50", "setting": "[18]", "result": "1.08 µM (active)"}, {"measurement": "EC50", "setting": "[19]", "result": "19 µM (active)"}, {"measurement": "AC50", "setting": "[20]", "result": "49.6 µM (active)"}, {"measurement": "EC50", "setting": "[21]", "result": "3.3 µM (active)"}, {"measurement": "EC50", "setting": "[22]", "result": "8.23 µM (inconclusive)"}, {"measurement": "AC50", "setting": "[23]", "result": "> 52 µM (inactive)"}, {"measurement": "EC50", "setting": "[24]", "result": "> 150 µM (not active)"}, {"measurement": "EC50", "setting": "[25]", "result": "11.7 µM (active)"}, {"measurement": "AC50", "setting": "[26]", "result": "1.7 µM (active)"}, {"measurement": "EC50", "setting": "[27]", "result": "> 67.5 µM (inactive)"}, {"measurement": "AC50", "setting": "[28]", "result": "3.19 µM (active)"}, {"measurement": "EC50", "setting": "[29]", "result": "10.4 µM (active)"}, {"measurement": "AC50", "setting": "[30]", "result": "4.32 µM (active)"}]}
{"smiles": "COC(=O)/C(=C\\Nc1ccc(Cl)c2ccccc12)c1ncc(C(F)(F)F)cc1Cl", "values": [{"measurement": "IC50", "setting": "[31]", "result": "> 50 µM (not active)"}, {"measurement": "CC50", "setting": "[32]", "result": "> 40 µM (active)"}]}
